One experiment concerns MoraXella MI. Briefly: MIC, agar incorporation method (NCCLS agar dilution method). Type of experiment: cell-based. To be noted: 18-24 hours, 35±2° C. How it is done: (§1) Drug dilutions and the agar plates are prepared by NCCLS method. Inoculum is prepared by direct colony suspensions in normal saline and adjusted to 0.5 McFarland turbidity and subsequently diluted as per NCCLS guidelines in order to obtain 10^4 CFU/spot. CFU/ml of a few randomly selected cultures is performed. The cultures are replicated on the agar plates using replicator (Denley's multipoint). The plates are incubated at 35±2° C. and in 5% CO2 atmosphere (for respiratory and Haemophilus strains) for 18-24 hours at 35±2° C. Minimum inhibitory concentrations (MIC) are determined after 18-24 hours. Q. C. strains are also included in each run of the study. The cation content of Mueller Hinton agar is checked by performing disk […] of 10 μg gentamicin disk against Pseudomonas aeroginosa ATCC 27853. The zone of inhibition should fall between 16-21 mm. The concentration of drug at which there is complete disappearance of growth spot or formation of less than 10 colonies per spot is considered as MIC.
(In agar dilution the substance is mixed into plates at graded concentrations.)

For a further experiment, the system named is S. pneum ATCC 6303. Described as above. It counts as cell-based, streptococcus pneumoniae. As to conditions: 18-24 hours, 35±2° C., 5% CO2. How it is done:
as §1

The next experiment concerns S. pneum CS 1687 (mef). The experiment is described as above. It counts as cell-based, streptococcus pneumoniae. As to conditions: 18-24 hours, 35±2° C., 5% CO2, mef: efflux pump mef genes. As for the experimental part: as §1
The test system of another experiment is S. pneum 1251 (mef). The description is as above. Type of experiment: cell-based, streptococcus pneumoniae. To be noted: 18-24 hours, 35±2° C., 5% CO2, mef: efflux pump mef genes. As for the experimental part:
as §1

For the next experiment, the system named is S. pneum ATCC 49619. Described as above. To be noted: 18-24 hours, 35±2° C., 5% CO2. It counts as cell-based, streptococcus pneumoniae. As for the experimental part: as §1
For another experiment, the system named is S. pneum AB 34 (mef). The experiment is described as above. Type of experiment: cell-based, streptococcus pneumoniae. To be noted: 18-24 hours, 35±2° C., 5% CO2, mef: efflux pump mef genes. As for the experimental part:
as §1

Another experiment has as its system H. inflenza ATCC 49247. The experiment is described as above. Type of experiment: cell-based, Haemophilus influenzae. To be noted: agar dilution, 18-24 hours, 35±2° C., 5% CO2. As for the experimental part: Minimum inhibitory concentrations (μg/ml) were obtained for representative compounds of the invention, which are given in Table 2.
as §1

The test system of a further experiment is S. pneum 1294 (mef). Briefly: microbe, parasite or virus in culture. It counts as cell-based, streptococcus pneumoniae. To be noted: agar dilution, 18-24 hours, 35±2° C., 5% CO2; mef: efflux pump mef genes. How it is done: as §1
For another experiment, the system named is S. pneum AB 30 (erm). Briefly: microbe, parasite or virus in culture. It counts as cell-based, streptococcus pneumoniae. To be noted: agar dilution, 18-24 hours, 35±2° C., 5% CO2; erm: ribosomal modification (mutation) erm genes. How it is done: as §1
A further experiment concerns S. pneum AB 14 (erm). As to the kind of experiment: microbe, parasite or virus in culture. It counts as cell-based, streptococcus pneumoniae. To be noted: agar dilution, 18-24 hours, 35±2° C., 5% CO2; erm: ribosomal modification (mutation) erm genes. As for the experimental part:
as §1

In a further experiment the test system is S. pneum 1275 (erm). Briefly: microbe, parasite or virus in culture. It counts as cell-based, streptococcus pneumoniae. As to conditions: agar dilution, 18-24 hours, 35±2° C., 5% CO2; erm: ribosomal modification (mutation) erm genes. How it is done: as §1
A further experiment deals with S. pneum AB 29 (erm). As to the kind of experiment: microbe, parasite or virus in culture. It counts as cell-based, streptococcus pneumoniae. As to conditions: agar dilution, 18-24 hours, 35±2° C., 5% CO2; erm: ribosomal modification (mutation) erm genes. As for the experimental part: as §1
Another experiment concerns S. pneum 1256 (erm). Briefly: microbe, parasite or virus in culture. It counts as cell-based, streptococcus pneumoniae. As to conditions: agar dilution, 18-24 hours, 35±2° C., 5% CO2; erm: ribosomal modification (mutation) erm genes. As for the experimental part:
as §1

In the case of `CCC1OC(=O)C(C)C(OC(=O)Cc2ccc(F)cc2)C(C)C(OC2OC(C)CC(N(C)Cc3cccc(O)c3)C2O)C(C)(OC)CC(C)C(=O)C(C)C(O)C1(C)O` (stereo not drawn) [Compound No. 17, 3-O-(4-Fluorophenyl)acetyl-5-O-[3′-N-desmethyl-3′-N-(3-hydroxy)benzyl] desosaminyl-6-O-methyl erythronolide A], the “Minimum Inhibitory Concentrations, MoraXella MI” value with MoraXella MI was 8 µg/mL. For the same molecule, the “Minimum Inhibitory Concentrations, S. pneum ATCC 6303” value in the experiment on S. pneum ATCC 6303 was below 0.5 µg/mL. Also, the “Minimum Inhibitory Concentrations, S. pneum CS 1687 (mef)” value in the experiment with S. pneum CS 1687 (mef) was 1 µg/mL. Moreover, the “Minimum Inhibitory Concentrations, S. pneum 1251 (mef)” value in the experiment on S. pneum 1251 (mef) turned out to be 1 µg/mL. For the same molecule, the “Minimum Inhibitory Concentrations, S. pneum ATCC 49619” value with S. pneum ATCC 49619 was below 0.5 µg/mL. Moreover, in the experiment with S. pneum AB 34 (mef), the “Minimum Inhibitory Concentrations, S. pneum AB 34 (mef)” value is above 16 µg/mL. Besides, in the experiment with H. inflenza ATCC 49247, the “Minimum Inhibitory Concentrations, H. inflenza ATCC 49247” value was above 16 µg/mL. For the same molecule, in the experiment with S. pneum 1294 (mef), the “Minimum Inhibitory Concentrations, S. pneum 1294 (mef)” value was determined as 1 µg/mL. In addition, the “Minimum Inhibitory Concentrations, S. pneum AB 30 (erm)” value with S. pneum AB 30 (erm) was above 16 µg/mL. Further, the “Minimum Inhibitory Concentrations, S. pneum AB 14 (erm)” value in the experiment with S. pneum AB 14 (erm) is above 16 µg/mL. Also, the “Minimum Inhibitory Concentrations, S. pneum 1275 (erm)” value in the experiment on S. pneum 1275 (erm) is above 16 µg/mL. Moreover, the “Minimum Inhibitory Concentrations, S. pneum AB 29 (erm)” value in the experiment with S. pneum AB 29 (erm) was below 0.5 µg/mL. For the same molecule, the “Minimum Inhibitory Concentrations, S. pneum 1256 (erm)” value in the experiment with S. pneum 1256 (erm) was above 16 µg/mL.

As to `C#CCN(C)C1CC(C)OC(OC2C(C)C(OC(=O)Cc3ccc(F)cc3)C(C)C(=O)OC(CC)C(C)(O)C(O)C(C)C(=O)C(C)CC2(C)OC)C1O` (stereo not drawn) [Compound No. 18, 3-O-(4-Fluorophenyl)acetyl-5-O-(3′-N-desmethyl-3′-N-propargyl)desosaminyl-6-O-methyl erythronolide A], the “Minimum Inhibitory Concentrations, MoraXella MI” value in the experiment on MoraXella MI amounted to 16 µg/mL. In addition, in the experiment with S. pneum ATCC 6303, the “Minimum Inhibitory Concentrations, S. pneum ATCC 6303” value was determined as 1 µg/mL. In the experiment on S. pneum CS 1687 (mef), the “Minimum Inhibitory Concentrations, S. pneum CS 1687 (mef)” value was 1 µg/mL. Also, the “Minimum Inhibitory Concentrations, S. pneum 1251 (mef)” value in the experiment with S. pneum 1251 (mef) turned out to be 1 µg/mL. Further, the “Minimum Inhibitory Concentrations, S. pneum ATCC 49619” value in the experiment with S. pneum ATCC 49619 turned out to be 1 µg/mL. Besides, in the experiment on S. pneum AB 34 (mef), the “Minimum Inhibitory Concentrations, S. pneum AB 34 (mef)” value came to 1 µg/mL. The “Minimum Inhibitory Concentrations, H. inflenza ATCC 49247” value with H. inflenza ATCC 49247 was above 16 µg/mL. In the experiment with S. pneum 1294 (mef), the “Minimum Inhibitory Concentrations, S. pneum 1294 (mef)” value came to 1 µg/mL. Moreover, the “Minimum Inhibitory Concentrations, S. pneum AB 30 (erm)” value in the experiment on S. pneum AB 30 (erm) was above 16 µg/mL. Besides, the “Minimum Inhibitory Concentrations, S. pneum AB 14 (erm)” value in the experiment on S. pneum AB 14 (erm) turned out to be 16 µg/mL. Also, in the experiment on S. pneum 1275 (erm), the “Minimum Inhibitory Concentrations, S. pneum 1275 (erm)” value was above 16 µg/mL. Moreover, the “Minimum Inhibitory Concentrations, S. pneum AB 29 (erm)” value with S. pneum AB 29 (erm) was 1 µg/mL. Besides, the “Minimum Inhibitory Concentrations, S. pneum 1256 (erm)” value in the experiment with S. pneum 1256 (erm) is above 16 µg/mL.

As to `CC[C@H]1OC(=O)[C@H](C)[C@@H](O[C@H]2C[C@@](C)(OC)[C@@H](O)[C@H](C)O2)[C@H](C)[C@@H](O[C@@H]2O[C@H](C)C[C@H](N(C)C)[C@H]2O)[C@](C)(O)C[C@@H](C)C(=O)[C@H](C)[C@@H](O)[C@]1(C)O` [E, erythromycin A, reference compound], the “Minimum Inhibitory Concentrations, MoraXella MI” value in the experiment on MoraXella MI worked out at 0.06 µg/mL. In addition, in the experiment with S. pneum ATCC 6303, the “Minimum Inhibitory Concentrations, S. pneum ATCC 6303” value amounted to 0.03 µg/mL. Further, the “Minimum Inhibitory Concentrations, S. pneum CS 1687 (mef)” value in the experiment on S. pneum CS 1687 (mef) is above 16 µg/mL. Also, the “Minimum Inhibitory Concentrations, S. pneum 1251 (mef)” value in the experiment with S. pneum 1251 (mef) is 8 µg/mL. For the same molecule, in the experiment on S. pneum ATCC 49619, the “Minimum Inhibitory Concentrations, S. pneum ATCC 49619” value turned out to be 0.008 µg/mL. Further, in the experiment with S. pneum AB 34 (mef), the “Minimum Inhibitory Concentrations, S. pneum AB 34 (mef)” value is above 16 µg/mL. Also, in the experiment with H. inflenza ATCC 49247, the “Minimum Inhibitory Concentrations, H. inflenza ATCC 49247” value is above 16 µg/mL. The “Minimum Inhibitory Concentrations, S. pneum 1294 (mef)” value in the experiment with S. pneum 1294 (mef) was above 16 µg/mL. In the experiment on S. pneum AB 30 (erm), the “Minimum Inhibitory Concentrations, S. pneum AB 30 (erm)” value is above 16 µg/mL. The “Minimum Inhibitory Concentrations, S. pneum AB 14 (erm)” value with S. pneum AB 14 (erm) was above 16 µg/mL. Moreover, in the experiment on S. pneum 1275 (erm), the “Minimum Inhibitory Concentrations, S. pneum 1275 (erm)” value was above 16 µg/mL. Besides, the “Minimum Inhibitory Concentrations, S. pneum AB 29 (erm)” value in the experiment with S. pneum AB 29 (erm) was above 16 µg/mL. Further, in the experiment on S. pneum 1256 (erm), the “Minimum Inhibitory Concentrations, S. pneum 1256 (erm)” value is above 16 µg/mL.

The values are drawn from patent US20070270484A1, “3'-N-Substituted-3-O-Substituted Erythronolide a Derivatives” (priority 2003, published 2007).
